ChEMBL document CHEMBL1157522 (Bioorg Med Chem Lett, 2008)
Activity calls are given as the source filed them. The rule behind the calls is not given here.

Tests used:
[1] = species on record: Homo sapiens; test: Inhibition of human chymotrypsin
[2] = molecular target: T1, Coagulation factor VII (Homo sapiens) (UniProt P08709); test: Inhibition of human factor 7a
T1 sequence (whole entry): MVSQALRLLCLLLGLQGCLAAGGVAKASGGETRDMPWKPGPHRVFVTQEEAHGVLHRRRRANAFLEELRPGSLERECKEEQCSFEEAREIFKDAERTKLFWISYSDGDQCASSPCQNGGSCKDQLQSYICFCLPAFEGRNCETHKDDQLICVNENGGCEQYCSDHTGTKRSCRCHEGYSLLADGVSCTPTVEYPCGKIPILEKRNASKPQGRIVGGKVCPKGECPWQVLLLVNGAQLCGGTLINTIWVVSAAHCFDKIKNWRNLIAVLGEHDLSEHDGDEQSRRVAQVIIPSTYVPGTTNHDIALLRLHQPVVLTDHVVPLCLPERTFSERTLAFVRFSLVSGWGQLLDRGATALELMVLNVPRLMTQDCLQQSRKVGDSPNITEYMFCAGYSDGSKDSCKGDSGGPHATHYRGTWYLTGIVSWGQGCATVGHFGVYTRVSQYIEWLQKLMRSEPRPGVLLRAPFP

[3] = molecular target: Vitamin K-dependent protein C (Homo sapiens) (UniProt P04070); test: Inhibition of human activated protein C
[4] = molecular target: Coagulation factor X (Homo sapiens, UniProt P00742); test: Inhibition of human factor 10a
[5] = molecular target: Coagulation factor IX (Homo sapiens) (UniProt P00740); test: Inhibition of human factor 9a
[6] = molecular target: Plasminogen (Homo sapiens) (UniProt P00747); test: Inhibition of human plasmin
[7] = molecular target: Trypsin (Homo sapiens) (UniProt P07477+P07478+P35030); test: Inhibition of human trypsin; assay type: protein assay
[8] = molecular target: Tissue-type plasminogen activator (Homo sapiens) (UniProt P00750); test: Inhibition of human tPA
[9] = molecular target: Plasma kallikrein (Homo sapiens) (UniProt P03952); test: Inhibition of human plasma kallikrein; assay type: cell-free
Plasma kallikrein (Homo sapiens), sequence (P03952 20-390 limits assumed): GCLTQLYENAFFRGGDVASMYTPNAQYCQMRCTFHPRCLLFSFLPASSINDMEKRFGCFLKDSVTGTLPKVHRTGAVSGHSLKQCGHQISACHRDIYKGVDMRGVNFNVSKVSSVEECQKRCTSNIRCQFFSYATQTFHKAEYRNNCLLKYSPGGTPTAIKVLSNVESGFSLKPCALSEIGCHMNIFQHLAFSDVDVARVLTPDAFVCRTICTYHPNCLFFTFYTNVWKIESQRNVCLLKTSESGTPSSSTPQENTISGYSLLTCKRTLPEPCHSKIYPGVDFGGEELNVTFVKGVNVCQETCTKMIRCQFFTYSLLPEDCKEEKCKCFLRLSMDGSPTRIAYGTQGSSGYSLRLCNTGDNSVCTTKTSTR
Plasma kallikrein (Homo sapiens), sequence (P03952 391-638 limits assumed): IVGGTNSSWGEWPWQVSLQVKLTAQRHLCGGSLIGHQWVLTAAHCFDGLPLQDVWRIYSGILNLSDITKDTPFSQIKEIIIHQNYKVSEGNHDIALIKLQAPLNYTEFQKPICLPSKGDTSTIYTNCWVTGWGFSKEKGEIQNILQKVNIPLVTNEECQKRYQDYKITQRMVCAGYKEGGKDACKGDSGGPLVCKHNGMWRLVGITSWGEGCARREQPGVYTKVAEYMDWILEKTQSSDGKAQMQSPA

Vitamin K-dependent protein C (Homo sapiens), sequence (P04070 43-197 limits assumed): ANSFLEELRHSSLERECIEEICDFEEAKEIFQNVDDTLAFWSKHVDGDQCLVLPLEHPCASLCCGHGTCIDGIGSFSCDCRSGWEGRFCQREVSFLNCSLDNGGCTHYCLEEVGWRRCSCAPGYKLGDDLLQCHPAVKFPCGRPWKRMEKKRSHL
Vitamin K-dependent protein C (Homo sapiens), sequence (P04070 212-461 limits assumed): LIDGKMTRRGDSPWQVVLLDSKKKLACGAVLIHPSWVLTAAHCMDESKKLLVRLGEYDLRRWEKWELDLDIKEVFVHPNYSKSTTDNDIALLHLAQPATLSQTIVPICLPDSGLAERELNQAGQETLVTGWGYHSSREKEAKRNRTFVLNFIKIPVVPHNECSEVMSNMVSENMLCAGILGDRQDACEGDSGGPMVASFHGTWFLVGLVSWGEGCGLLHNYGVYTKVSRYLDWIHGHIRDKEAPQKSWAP
Coagulation factor IX (Homo sapiens), sequence (P00740 47-191 limits assumed): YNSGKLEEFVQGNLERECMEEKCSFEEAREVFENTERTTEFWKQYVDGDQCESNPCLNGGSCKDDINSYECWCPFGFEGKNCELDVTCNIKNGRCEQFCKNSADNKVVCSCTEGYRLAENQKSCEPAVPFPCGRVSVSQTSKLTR
Coagulation factor IX (Homo sapiens), sequence (P00740 227-461 limits assumed): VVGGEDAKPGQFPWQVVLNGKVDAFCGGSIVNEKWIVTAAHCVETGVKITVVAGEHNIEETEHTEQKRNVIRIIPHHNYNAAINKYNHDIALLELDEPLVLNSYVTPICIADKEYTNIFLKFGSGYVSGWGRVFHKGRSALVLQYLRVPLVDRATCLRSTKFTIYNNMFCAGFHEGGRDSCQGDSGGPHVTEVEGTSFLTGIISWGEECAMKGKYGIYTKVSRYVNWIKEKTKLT
Coagulation factor X, sequence (P00742 41-179 limits assumed): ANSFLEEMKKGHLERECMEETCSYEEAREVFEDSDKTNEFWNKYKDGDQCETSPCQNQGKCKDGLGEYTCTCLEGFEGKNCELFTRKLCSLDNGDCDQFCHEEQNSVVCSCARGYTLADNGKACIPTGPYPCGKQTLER
Coagulation factor X, sequence (P00742 235-488 limits assumed): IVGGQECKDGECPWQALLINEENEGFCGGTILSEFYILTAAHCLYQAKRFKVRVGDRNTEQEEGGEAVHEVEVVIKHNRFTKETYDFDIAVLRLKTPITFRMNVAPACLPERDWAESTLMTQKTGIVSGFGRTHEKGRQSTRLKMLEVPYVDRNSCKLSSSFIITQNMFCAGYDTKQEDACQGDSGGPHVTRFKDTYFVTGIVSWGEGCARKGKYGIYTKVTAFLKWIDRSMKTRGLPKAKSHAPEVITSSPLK
Tissue-type plasminogen activator (Homo sapiens), sequence (P00750 36-562 limits assumed): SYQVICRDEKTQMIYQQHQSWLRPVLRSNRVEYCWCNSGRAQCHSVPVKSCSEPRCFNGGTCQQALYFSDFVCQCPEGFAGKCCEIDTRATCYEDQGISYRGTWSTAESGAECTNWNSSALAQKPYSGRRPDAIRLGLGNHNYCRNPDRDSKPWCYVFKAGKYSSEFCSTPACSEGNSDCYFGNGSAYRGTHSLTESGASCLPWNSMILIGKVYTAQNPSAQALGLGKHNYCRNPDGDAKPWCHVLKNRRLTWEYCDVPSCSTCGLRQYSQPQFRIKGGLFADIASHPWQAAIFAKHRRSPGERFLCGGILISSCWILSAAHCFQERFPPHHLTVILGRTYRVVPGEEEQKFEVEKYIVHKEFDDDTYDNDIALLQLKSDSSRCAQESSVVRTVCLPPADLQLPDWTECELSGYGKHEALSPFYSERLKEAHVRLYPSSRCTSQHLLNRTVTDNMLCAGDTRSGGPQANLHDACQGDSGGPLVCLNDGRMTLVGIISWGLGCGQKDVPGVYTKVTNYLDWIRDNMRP
Plasminogen (Homo sapiens), sequence (P00747 97-580 limits assumed): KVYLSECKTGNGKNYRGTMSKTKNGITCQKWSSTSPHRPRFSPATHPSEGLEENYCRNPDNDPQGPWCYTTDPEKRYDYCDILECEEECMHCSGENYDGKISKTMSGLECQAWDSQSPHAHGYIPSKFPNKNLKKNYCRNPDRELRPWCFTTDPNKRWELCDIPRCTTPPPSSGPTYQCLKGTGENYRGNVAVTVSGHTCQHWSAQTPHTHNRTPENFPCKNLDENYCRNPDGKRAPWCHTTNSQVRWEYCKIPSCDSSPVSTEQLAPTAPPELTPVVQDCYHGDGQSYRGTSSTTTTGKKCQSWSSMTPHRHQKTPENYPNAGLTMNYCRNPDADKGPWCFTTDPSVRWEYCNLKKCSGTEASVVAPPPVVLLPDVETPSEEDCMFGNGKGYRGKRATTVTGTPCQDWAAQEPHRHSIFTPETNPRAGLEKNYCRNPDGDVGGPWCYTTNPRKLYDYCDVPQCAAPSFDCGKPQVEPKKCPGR
Plasminogen (Homo sapiens), sequence (P00747 581-810 limits assumed): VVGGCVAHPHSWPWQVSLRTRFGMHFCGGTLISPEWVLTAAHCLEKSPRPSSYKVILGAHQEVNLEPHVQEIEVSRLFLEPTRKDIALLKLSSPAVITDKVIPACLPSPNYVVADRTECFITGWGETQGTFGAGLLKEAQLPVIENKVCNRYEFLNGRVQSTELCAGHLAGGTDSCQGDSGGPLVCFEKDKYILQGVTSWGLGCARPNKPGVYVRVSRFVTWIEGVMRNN

| Structure (SMILES) | Activity [1] | Activity [2] | Activity [3] | Ki [4] [nM] | Activity [5] | Activity [6] | Activity [7] | Activity [8] | Activity [9] |
| --- | --- | --- | --- | --- | --- | --- | --- | --- | --- |
| COc1ccc(-n2nc(C(F)(F)F)c3c2C(=O)N(c2ccc(C4(C(=O)NC5CCCC5)CC4)cc2)CC3)cc1 | inactive | inactive | inactive | 30 | inactive | inactive | inactive | inactive | inactive |
| COc1ccc(-n2nc(C(F)(F)F)c3c2C(=O)N(c2ccc(C4(Cn5ccnc5C)CC4)cc2)CC3)cc1 | inactive | inactive | inactive |  | inactive | inactive | inactive | inactive | inactive |
| COc1ccc(-n2nc(C(F)(F)F)c3c2C(=O)N(c2ccc(-c4ccccc4CNC(C)C)cc2)CC3)cc1 |  |  |  | 1.4 |  |  |  |  |  |
| CNCc1ccccc1-c1ccc(N2CCc3c(C(F)(F)F)nn(-c4ccc(OC)cc4)c3C2=O)cc1 |  |  |  | 0.28 |  |  |  |  |  |
| COc1ccc(-n2nc(C(F)(F)F)c3c2C(=O)N(c2ccc(C4(C(=O)Nc5nnn[nH]5)CC4)cc2)CC3)cc1 | inactive | inactive | inactive | 3 | inactive | inactive | inactive | inactive | inactive |
| COc1ccc(-n2nc(C(F)(F)F)c3c2C(=O)N(c2ccc(C4(C(=O)N5CCCC5)CC4)cc2)CC3)cc1 | inactive | inactive | inactive | 169 | inactive | inactive | inactive | inactive | inactive |
| COc1ccc(-n2nc(C(F)(F)F)c3c2C(=O)N(c2ccc(-c4ccccc4CN(C)C)cc2)CC3)cc1 |  |  |  | 0.3 |  |  |  |  |  |
| COc1ccc(-n2nc(C(F)(F)F)c3c2C(=O)N(c2ccc(C4(CN5CCOCC5)CC4)cc2)CC3)cc1 | inactive | inactive | inactive |  | inactive | inactive | inactive | inactive | inactive |
| CNCc1ccccc1-c1ccc(N2CCc3c(C(N)=O)nn(-c4ccc(OC)cc4)c3C2=O)cc1 |  |  |  | 0.15 |  |  |  |  |  |
| COc1ccc(-n2nc(C(F)(F)F)c3c2C(=O)N(c2ccc(C4(CN5CCC(O)CC5)CC4)cc2)CC3)cc1 | inactive | inactive | inactive | 0.14 | inactive | inactive | inactive | inactive | inactive |
| COc1ccc(-n2nc(C(F)(F)F)c3c2C(=O)N(c2ccc(C4(C(=O)N5CCC(O)CC5)CC4)cc2)CC3)cc1 | inactive | inactive | inactive | 54 | inactive | inactive | inactive | inactive | inactive |
| COc1ccc(-n2nc(C(F)(F)F)c3c2C(=O)N(c2ccc(C4(CN5CC[C@@H](O)C5)CC4)cc2)CC3)cc1 | inactive | inactive | inactive | 0.038 | inactive | inactive | inactive | inactive | inactive |
| COc1ccc(-n2nc(C(F)(F)F)c3c2C(=O)N(c2ccc(C4(C(=O)Nc5nncs5)CC4)cc2)CC3)cc1 | inactive | inactive | inactive | 1.8 | inactive | inactive | inactive | inactive | inactive |
| COc1ccc(-n2nc(C(F)(F)F)c3c2C(=O)N(c2ccc(C4(CNC5CCCC5)CC4)cc2)CC3)cc1 | inactive | inactive | inactive | 0.12 | inactive | inactive | inactive | inactive | inactive |

Results, then the compound that gave them:

| Activity [1] | Activity [2] | Activity [3] | Ki [4] [nM] | Activity [5] | Activity [6] | Activity [7] | Activity [8] | Activity [9] | Structure (SMILES) |
| --- | --- | --- | --- | --- | --- | --- | --- | --- | --- |
| inactive | inactive | inactive |  | inactive | inactive | inactive | inactive | inactive | COC(=O)C1(c2ccc(N3CCc4c(C(F)(F)F)nn(-c5ccc(OC)cc5)c4C3=O)cc2)CC1 |
| inactive | inactive | inactive | 3.3 | inactive | inactive | inactive | inactive | inactive | COc1ccc(-n2nc(C(F)(F)F)c3c2C(=O)N(c2ccc(C4(C(N)=O)CC4)cc2)CC3)cc1 |
| inactive | inactive | inactive | 0.074 | inactive | inactive | inactive | inactive | inactive | COc1ccc(-n2nc(C(F)(F)F)c3c2C(=O)N(c2ccc(C4(CN(C)S(C)(=O)=O)CC4)cc2)CC3)cc1 |
| inactive | inactive | inactive | 1.6 | inactive | inactive | inactive | inactive | inactive | COCC1(c2ccc(N3CCc4c(C(F)(F)F)nn(-c5ccc(OC)cc5)c4C3=O)cc2)CC1 |
| inactive | inactive | inactive | 0.14 | inactive | inactive | inactive | inactive | inactive | CCNC(=O)N(C)CC1(c2ccc(N3CCc4c(C(F)(F)F)nn(-c5ccc(OC)cc5)c4C3=O)cc2)CC1 |
| inactive | inactive | inactive | 1.8 | inactive | inactive | inactive | inactive | inactive | COc1ccc(-n2nc(C(F)(F)F)c3c2C(=O)N(c2ccc(C4(C#N)CC4)cc2)CC3)cc1 |
| inactive | inactive | inactive |  | inactive | inactive | inactive | inactive | inactive | CNCC1(c2ccc(N3CCc4c(C(F)(F)F)nn(-c5ccc(OC)cc5)c4C3=O)cc2)CC1 |
| inactive | inactive | inactive | 0.055 | inactive | inactive | inactive | inactive | inactive | COc1ccc(-n2nc(C(F)(F)F)c3c2C(=O)N(c2ccc(C4(CN(C)C(C)=O)CC4)cc2)CC3)cc1 |
| inactive | inactive | inactive | 2.4 | inactive | inactive | inactive | inactive | inactive | COc1ccc(-n2nc(C(F)(F)F)c3c2C(=O)N(c2ccc(C4(CO)CC4)cc2)CC3)cc1 |
| inactive | inactive | inactive | < 0.02 | inactive | inactive | inactive | inactive | inactive | CCN(CC)CC1(c2ccc(N3CCc4c(C(F)(F)F)nn(-c5ccc(OC)cc5)c4C3=O)cc2)CC1 |
| inactive | inactive | inactive | 5.8 | inactive | inactive | inactive | inactive | inactive | COc1ccc(-n2nc(C(F)(F)F)c3c2C(=O)N(c2ccc(C4(C(=O)N(C)C)CC4)cc2)CC3)cc1 |
| inactive | inactive | inactive | 0.042 | inactive | inactive | inactive | inactive | inactive | COc1ccc(-n2nc(C(F)(F)F)c3c2C(=O)N(c2ccc(C4(CNC(C)C)CC4)cc2)CC3)cc1 |
